Columns and labels:
CCR9 = molecular target: T1, CCR9 (Homo sapiens, UniProt P51686); experiment: Membrane-based NanoBRET saturation binding assay, CCR9_Nluc membranes; conditions: compared with CCR1
T1 construct: host or cells: HEK293T, transient
T1 sequence (P51686 1-369): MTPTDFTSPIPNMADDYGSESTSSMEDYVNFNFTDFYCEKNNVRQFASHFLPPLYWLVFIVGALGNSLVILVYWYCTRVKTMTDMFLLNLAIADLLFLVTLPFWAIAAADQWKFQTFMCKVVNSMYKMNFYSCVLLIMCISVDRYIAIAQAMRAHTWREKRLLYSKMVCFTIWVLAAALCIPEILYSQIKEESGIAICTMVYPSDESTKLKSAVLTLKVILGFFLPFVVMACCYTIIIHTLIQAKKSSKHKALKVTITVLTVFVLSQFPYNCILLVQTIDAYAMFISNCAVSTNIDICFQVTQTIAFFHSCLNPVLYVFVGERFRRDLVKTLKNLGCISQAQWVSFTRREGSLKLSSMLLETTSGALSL
Description: (§1) Emission spectra of Nluc -labeled CCR1 (CCR1_Nluc) protein: The emission spectra of CCR1_Nluc has already been reported by Toy et al.1 For a confirmation of the reported data with new CCR1_Nluc membrane batches, furimazine (Promega, Mannheim, Germany 1:2000) was added to the membrane preparations (2 µg protein/well). […]
(§2) NanoBRET binding assays: Membrane-based NanoBRET saturation assay: For the establishment of our NanoBRET binding assay, we referred to recently published protocols. […]
(§3) Then, 20 µL of the membrane preparations diluted in assay buffer (3 µg total protein/well) were added and the plates were incubated for 90 min at 37 °C. Subsequently, 5 µL of a furimazine solution (Promega, Mannheim, Germany, final assay dilution: 1:5,000) were added to each well (final assay volume: 35 µL) before measuring luminescence with a CLARIOstar microplate reader using 620/10 nm and 475/30 nm emission filters after 5 min of incubation in the dark. Bioluminescence resonance energy transfer (BRET) was determined as the ratio of acceptor fluorescence and donor luminescence. […] Specific binding signals were calculated as a difference of total and non-specific binding. If required, netBRET values were calculated as the difference between total BRET values and the values obtained in the absence of a fluorescent ligand. […]

CXCR2 = molecular target: T2, CXCR2 (Homo sapiens, UniProt P25025); experiment: Membrane-based NanoBRET saturation binding assay, CXCR2_Nluc membranes; conditions: compared with CCR1
T2 construct: host or cells: HEK293T, transient
T2 sequence (P25025 1-360): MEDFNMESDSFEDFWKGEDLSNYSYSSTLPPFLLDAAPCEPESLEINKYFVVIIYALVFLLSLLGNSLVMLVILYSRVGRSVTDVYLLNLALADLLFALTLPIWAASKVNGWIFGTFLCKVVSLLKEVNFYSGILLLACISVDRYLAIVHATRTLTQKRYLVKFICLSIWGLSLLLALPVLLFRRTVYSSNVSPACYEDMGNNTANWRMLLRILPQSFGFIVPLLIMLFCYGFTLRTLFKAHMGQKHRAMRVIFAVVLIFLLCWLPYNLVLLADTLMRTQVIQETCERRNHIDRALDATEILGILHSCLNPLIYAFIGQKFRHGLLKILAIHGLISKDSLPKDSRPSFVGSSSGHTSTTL
Description: as §1, §2, §3

Binding signal for CCR9 (CCR9): much weaker
Binding signal for CXCR2 (CXCR2): much weaker
SMILES: CN(C)c1ccc2c(-c3cc(C(=O)NCCOCCOCc4cn(CCCC(=O)C5=C(O)C(=O)N(c6ccc(Br)cc6F)C5C5CCCCC5)nn4)ccc3C(=O)[O-])c3ccc(=[N+](C)C)cc-3oc2c1 (centres unmarked) [compound 12]

Source: PMC11249626, “Fluorophore-Labeled Pyrrolones Targeting the Intracellular Allosteric Binding Site of the Chemokine Receptor CCR1” (ACS Pharmacology & Translational Science, 2024)
